The nature of series [1]: Preclinical studies of immune-suppressive effects. Conditions: compared with the steroids. An excerpt:
Norketotifen is thus particularly useful in the treatment of diseases treatable with the TNFα blocking agents adalimumab (Humira®), infliximab (Remicade®, Inflectra®), certolizumab pegol (Cimzia®), golimumab (Simponi®) and enteracept (Enbrel®); the IL-4 and IL-13 inhibitors dupilumab (Dupixent®), pascolizumab, pitrakinra, and lebrikizumab, anrukinzumab, and tralokinumab; and the IL-5 inhibitors mepolizumab, reslizumab and benralizumab. Advantageously, norketotifen is a small molecule and oral and parenteral administration of norketotifen can provide for convenience and significant cost savings.

The subject of series [2] is human white blood cells. The experiment in a line: Induced cytokine release from stimulated human white blood cells (overall conclusion). The class given is cell-based. Conditions: PHA 5 μg/ml, 16 hours; conclusion in words. As to the method: The objective of this study was to assess the ability of norketotifen to inhibit induced cytokine release from stimulated human white blood cells.
The study was conducted in two phases. The first phase included optimization of the test methodology and including dose-range finding studies, using buffy coats from 3 human donors, stimulated with phytohemagglutinin (PHA). Following optimization of the test conditions, a final protocol was issued. In the following Main Study, white blood cells (buffy coats) from 5 healthy human donors were stimulated with PHA, 5 μg/ml. The concentrations of the test article and the duration of exposure were optimized to obtain acceptable dose-response ratios. Thus, the inhibitory effects of three concentrations of NK and one concentration of ketotifen were evaluated in the Main Study. The buffy coats containing white blood cells from 5 male human donors were resuspended in assay media and were pre-incubated for 30 min with either vehicle/saline, ketotifen 10 μM ([…]) or norketotifen 1 μM and 10 μM and 100 μM, corresponding to 0.411 μg/ml, 4.11 μg/ml and 41.1 μg/ml, resp. Following these preincubations, the white blood cells were stimulated for 16 hours with PHA, 5 μg/ml. The cell system supernatants were then harvested and stored frozen pending analyses. […]

For series [3], the system named is mouse. As to conditions: mouse model of sedation; U.S. Pat. Nos. 7,226,934 and 7,557,128; cited from earlier work.

As to `O=C1Cc2ccccc2C(=C2CCNCC2)c2ccsc21` (racemic) [Norketotifen, norketotifen], the Adverse immune-suppressive effects result in series [1] is reported as “free from the adverse immune-suppressive effects”. Besides, the “Inhibition of the release of cytokines from human white blood cells” value in series [2] was “potently and dose-dependently inhibited”.

Consider `CN1CCC(=C2c3ccccc3CC(=O)c3sccc32)CC1` [Ketotifen, ketotifen, reference compound], for which the “Inhibition of the release of cytokines from human white blood cells” value in series [2] is “No statistically significant inhibition”.

With `O=C(O)/C=C/C(=O)O.O=C1Cc2ccccc2C(=C2CCNCC2)c2ccsc21` [R-isomer, R-norketotifen], the Sedative effects result in series [3] was “sedative effects were attributed to the R-isomer”.

Source of the values: patent publication US20210267960A1, “METHODS OF TREATMENT OF INFLAMMATORY CYTOKINE-RELATED ARTHRITIC DISORDERS” (Bridge Pharma Inc., priority 2020, published 2021).
